Legend:
HeLa cells = test: Cytotoxicity of the combination of 10a and topotecan on HeLa cells; type: cell-based, human
Text: TDP1 is able to cleave the TOP1–DNA complex, thus preventing the action of Tpc and decreasing the efficiency of this clinically used drug. The inhibition of TDP1 activity can increase the efficiency of Tpc. Next, we checked the cytotoxic effect of the combination of Tpc and examined the TDP1 inhibitors compared to Tpc alone on HeLa cells and HEK293 cells.
We observed the suppressed cell growth in the joint presence of the TDP1 inhibitor and Tpc on HeLa cells compared to Tpc alone (Figure 5). We observed the synergistic effect both when we titrated 10a with addition of fixed Tpc (1 μM or 2 μM) and vice versa when we titrated Tpc with addition of fixed 10a (5 μM). […] The CC50 value of Tpc decreased from 2 μM (only Tpc) to 0.7 μM (Tpc with 5 μM 10a).
Cytotoxicity of the compounds was examined against human cell lines HEK293A (human embryonic kidney)—WT, TDP1 deficient (Tdp1-/-), PARP1 deficient (PARP1-/-), and HeLa (cervical cancer) using an EZ4U colorimetric test (Biomedica, Vienna, Austria). The HEK293A cell line was obtained from Thermo Fisher Scientific (Waltham, MA, USA), and the HeLa cell line was obtained from the Russian Cell Culture Collection (RCCC) Institute of Cytology RAS, St. Petersburg, Russia. The cells were grown in DMEM/F12 medium (Gibco, Thermo Fisher Scientific, Waltham, MA, USA), with 1x GlutaMAX (Gibco, Thermo Fisher Scientific, Waltham, MA, USA), 50 IU/mL penicillin, 50 μg/mL streptomycin (MP Biomedicals), and in the presence of 10% fetal bovine serum (Biolot, Saint-Petersburg, Russia) in a 5% CO2 atmosphere. Cells were grown in the presence of 1% DMSO in the control wells. After the formation of a 30–50% monolayer, the tested compounds were added to the medium, and the cell culture was monitored for 3 days. The values were normalized to their own control in each case. At least three independent experiments were carried out. […] The compound concentration that caused 50% cell growth inhibition was determined using OriginPro 8.6.0 software (OriginLab, Northampton, MA, USA). […]

TDP1 = target: T1, TDP1 (Homo sapiens, UniProt Q9NUW8); test: Steady-state kinetics of the TDP1 reaction (Vmax, KM, type of inhibition); type: biochemical; parameters: Vmax: unit not given here
T1 construct: made in house; host or cells: E. coli
T1 sequence (Q9NUW8 whole entry): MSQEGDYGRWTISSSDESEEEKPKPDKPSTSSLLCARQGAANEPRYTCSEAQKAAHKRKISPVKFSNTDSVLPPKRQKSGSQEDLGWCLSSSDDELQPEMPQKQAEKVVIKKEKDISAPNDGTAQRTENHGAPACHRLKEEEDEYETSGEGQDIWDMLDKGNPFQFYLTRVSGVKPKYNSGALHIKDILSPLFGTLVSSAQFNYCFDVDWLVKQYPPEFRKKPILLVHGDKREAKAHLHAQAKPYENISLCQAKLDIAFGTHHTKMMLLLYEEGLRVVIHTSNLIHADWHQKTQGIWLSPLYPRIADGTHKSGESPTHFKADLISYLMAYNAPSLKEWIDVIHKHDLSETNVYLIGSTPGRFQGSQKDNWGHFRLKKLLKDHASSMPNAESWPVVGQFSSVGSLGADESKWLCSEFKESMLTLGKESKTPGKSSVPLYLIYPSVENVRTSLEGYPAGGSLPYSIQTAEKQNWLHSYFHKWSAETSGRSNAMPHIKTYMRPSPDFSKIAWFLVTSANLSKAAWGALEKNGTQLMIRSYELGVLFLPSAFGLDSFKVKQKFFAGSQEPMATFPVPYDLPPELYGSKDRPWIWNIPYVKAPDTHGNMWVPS
Text: The reversible enzyme inhibitors were classified as competitive, uncompetitive, non-competitive, or mixed, depending on the binding of the enzyme, to the enzyme–substrate complex (ES) or to the enzyme–substrate–inhibitor triple complex (ESI). The enzyme could bind the inhibitor at the different steps of catalysis (before or after the substrate) and at the substrate-binding site or another site. The effect of the inhibitor on enzymatic activity can be analyzed using graphical representations of the Michaelis–Menten equation. […] TDP1 has a catalytic pocket with a narrow positively charged cleft where it binds DNA and with a relatively large cleft that contains a mixed charge distribution for the TOP1 fragment binding. It is known that TDP1 hydrolyzes the DNA–TOP1 adducts via two coordinated nucleophilic attacks of two His residues (His263 and His493) with the covalent intermediate complex formation. The enzyme reaction catalyzed by TDP1 could be inhibited in two steps: the first one is the inhibition of the TDP1 binding to the DNA substrate (the nucleophilic attack of His263). The second step is releasing TDP1 from the transition complex (nucleophilic attack by a water molecule activated by His493). Inhibition of the second step prevents the release of the DNA 3′-phosphate product from the DNA–TDP1 complex. Spinocerebellar ataxia with axonal neuropathy (SCAN1) is a neurological disease that is caused by a TDP1 His493Arg mutation. This mutation prevents the second step of hydrolysis of the intermediate complex and the enzyme remains covalently bound to DNA [47]. The uncompetitive inhibitors also prevent the second step of the reaction, stabilizing the enzyme–DNA covalent complex, which can lead to the accumulation of the single-strand breaks in the cell.
The biosensor (5′-[FAM] AAC GTC AGGGTC TTC C [BHQ]-3′) was synthesized in the Laboratory of Nucleic Acid Chemistry at the Institute of Chemical Biology and Fundamental Medicine (Novosibirsk, Russia) and was used for TDP1 enzyme activity real-time fluorescence detection. The reaction mixture (200 μL) contained a TDP1 reaction buffer (50 mM Tris-HCl, pH 8.0, 50 mM NaCl, and 7 mM β-mercaptoethanol), 50 nM oligonucleotide, varied concentrations of the tested compounds, and purified TDP1 in a final concentration 1.5 nM. The reaction mixtures were incubated at a constant temperature of 26 °C in a POLARstar OPTIMA fluorimeter (BMG LABTECH, GmbH, Ortenberg, Germany). Fluorescence intensity was measured (Ex485/Em520 nm) every 1 min for 10 min. The average values of the half maximal inhibitory concentration (IC50) were determined using an eleven-point concentration response curve and calculated using MARS Data Analysis 2.0 (BMG LABTECH). The 50% inhibitory concentration (IC50) was defined as the concentration of the compound that inhibited 50% of the enzyme activity when compared to the untreated controls. At least three independent experiments were carried out to obtain the IC50 values. To determine the kinetic parameters of the TDP1 enzymatic reaction, the apparent maximum rate of enzymatic reaction (Vmax), Michaelis constant (KM), possible inhibition mechanism, and steady-state kinetic experiments were carried out at 5 fixed concentrations of the substrate, with variation in the inhibitor concentrations. The standard reaction mixtures (200 μL) contained reaction buffer components; 50 nM, 100 nM, 200 nM, 500 nM, or 1000 nM substrate; an inhibitor; and 1.5 nM recombinant human TDP1. The initial kinetic curves were obtained in three independent experiments and statistically processed in OriginPro 8.6.0 (OriginLab, Northampton, MA, USA).
Table S25 Dependence of TDP1 reaction values V max and K M on the concentration of inhibitors
[7g], mM V max Standard Error K M Standard Error
[7h], mM V max Standard Error K M Standard Error
[10a], mM V max Standard Error K M Standard Error
[10b], mM V max Standard Error K M Standard Error

CC(=O)C1=C(O)C=C2Oc3c(C(=O)C[S+]([O-])c4nc5ccccc5s4)c(O)c(C)c(O)c3[C@@]2(C)C1=O (stereo partly drawn) [10a, (2R)-4-acetyl-10-[2-(1,3-benzothiazole-2-sulfinyl)acetyl]-5,11,13-trihydroxy-2,12-dimethyl-8-oxatricyclo[7.4.0.0^2,7]trideca-1(13),4,6,9,11-pentaen-3-one]
Synergy with Tpc (in words) (HeLa cells; HeLa cells): promising synergy
CC50 (HeLa cells; Homo sapiens, HeLa, 10a titrated with fixed 2 μM Tpc, read-out: CC50 of 10a with Tpc): 3 µM
Vmax (TDP1; inhibitor 0.8 mM (so in the source)): 27.8
Vmax (TDP1; inhibitor 1.6 mM (so in the source)): 26.5
Vmax (TDP1; inhibitor 3.2 mM (so in the source)): 25.1
Vmax (TDP1; inhibitor 6.4 mM (so in the source)): 21.3
Type of inhibition of TDP1 enzyme reaction (TDP1; steady-state conditions, fall in both Vmax and KM with increasing inhibitor): uncompetitive
